The results in this text go back to patent publication US11485742B2, “2-azaspiro[3.4]octane derivatives as M4 agonists” (NOVARTIS AG, priority 2019, dated 2022).

In experiment [1] the target is T1, Cloned human M1 receptor (CHRM1) (Homo sapiens, UniProt P11229).
T1 construct: expressed in transfected cells; host or cells: HEK293
T1 sequence (P11229 1-460): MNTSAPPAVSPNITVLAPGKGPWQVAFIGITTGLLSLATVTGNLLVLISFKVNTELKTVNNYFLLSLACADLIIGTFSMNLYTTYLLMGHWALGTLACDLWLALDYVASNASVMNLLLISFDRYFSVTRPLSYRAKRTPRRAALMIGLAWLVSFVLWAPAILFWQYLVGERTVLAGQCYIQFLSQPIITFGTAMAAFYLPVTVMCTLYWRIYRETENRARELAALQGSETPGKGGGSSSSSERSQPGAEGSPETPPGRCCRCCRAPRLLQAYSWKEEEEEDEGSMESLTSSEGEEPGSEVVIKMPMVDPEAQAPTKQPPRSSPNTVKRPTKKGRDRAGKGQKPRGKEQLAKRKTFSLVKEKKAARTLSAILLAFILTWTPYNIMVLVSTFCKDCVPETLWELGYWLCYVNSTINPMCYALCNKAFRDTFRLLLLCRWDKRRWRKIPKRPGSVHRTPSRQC
Description: CHRM1 Ca++ Flux Assay (HEK293 M1 cells, agonist mode). Type of experiment: cell-based. The settings on record: for M1 FDSS PA % / Emax: Percent Activity (PA); for EC50: geometric mean if tested more than once, read-out: M1 FDSS EC50; for Emax: read-out: M1 FDSS PA %. The procedure:
(§1) The above examples were characterized by measuring the intracellular mobilization of Ca^++ ions caused by signaling events mediated by the receptor. The Intra-cellular Calcium flux levels were captured by the highly sensitive Ca^++ indicator, Calcium Assay Kit (BD Biosciences; Catalog Number 640178. The fluorescent activity from all receptors were monitored by the fluorescent imager, FDSS 7000EX (Hamamatsu) over a span of 3 minutes. The change in Calcium flux was readily captured upon activation with the muscarinic orthosteric agonist, Carbachol.
Cloned human M1 receptor (CHRM1) was stably expressed in HEK293 cells and were grown and maintained in a monolayer culture with DMEM/High Glucose (Life Technologies) supplemented with 10% Fetal Bovine Serum, 1×Pen-Strep, and 0.5 mg/mL Geneticin in a humidified atmosphere (5% CO2) at 37° C. The cultures were grown to 90% confluency in T150 flasks (Corning) and washed with 1×DPBS and lifted with 0.05% Trypsin (Life Technologies). The cells were then spun (1K rpm, 3 minutes) and frozen using Recovery Cell Culture Freezing Media (Gibco Technologies). Cells were stored in liquid nitrogen and thawed a day before the assay.
Prior to the day of the assay, stable HEK293 M1 cells were thawed and plated on 384 well black walled clear bottom TC treated plates (Greiner Cat #781091) at 25K cells/well with DMEM/High Glucose supplemented with 10% FBS (Hyclone) Pen-Strep (Life Technologies) and kept overnight in a humidified atmosphere (5% CO2) at 37° C. The following day, cells were loaded with 20 uL Ca^++ dye (BD Biosciences) using Loading Buffer (HBSS +Ca/+Mg, 20 mM HEPES) and placed back in cell incubator for a minimum of 1 hour. The dye was replaced with 45 μL Assay Buffer (HBSS −Ca/−Mg, 20 mM HEPES) and kept at room temperature prior to running on cell imager. Compounds were prepared in Assay Buffer and 5 uL was added to the cells. The FDSS 7000EX (Hamamatsu) was used to acquire Ca++ traces for 3 minutes from cells treated with 11 point dose in triplicate in order to generate dose response curves in agonist mode. All compounds were serially diluted in DMSO then prepared in Assay Buffer for Ca^++ flux studies. The dose response curves were generated from the average of triplicate wells obtained from each data point and used a non-linear regression of four parameter dose response algorithm. The Percent Activity (PA) was measured to EC100 of Carbachol.
(§2) If an Example was tested more than once in an assay, then the values below represent the geometric mean of the results from each independent experiment.

Experiment [2] deals with T2, human cloned CHRM5 receptor (Homo sapiens, UniProt P08912).
T2 construct: expressed in transfected cells; host or cells: CHO (M5_CHO)
T2 sequence (P08912 1-532): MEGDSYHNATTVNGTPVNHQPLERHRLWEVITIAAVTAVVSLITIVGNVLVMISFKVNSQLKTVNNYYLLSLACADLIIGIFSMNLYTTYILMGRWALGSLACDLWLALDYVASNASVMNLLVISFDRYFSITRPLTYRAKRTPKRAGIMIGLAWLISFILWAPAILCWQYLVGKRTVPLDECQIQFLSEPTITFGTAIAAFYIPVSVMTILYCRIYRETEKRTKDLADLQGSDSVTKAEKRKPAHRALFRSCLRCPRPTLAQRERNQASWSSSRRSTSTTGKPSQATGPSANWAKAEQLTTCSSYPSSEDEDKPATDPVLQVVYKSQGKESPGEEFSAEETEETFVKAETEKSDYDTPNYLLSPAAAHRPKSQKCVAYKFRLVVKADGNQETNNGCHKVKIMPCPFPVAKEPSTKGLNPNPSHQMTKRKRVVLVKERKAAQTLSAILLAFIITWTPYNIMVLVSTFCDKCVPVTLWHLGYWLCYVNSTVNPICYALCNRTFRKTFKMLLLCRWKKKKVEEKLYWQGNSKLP
In words: CHRM5 Ca++ Flux Assay (M5_CHO cells, agonist mode). Format: cell-based. The settings on record: for M5 FDSS PA % / Emax: Percent Activity (PA) measured to EC100 of Carbachol; for EC50: agonist mode, geometric mean if tested more than once, read-out: M5 FDSS EC50; for Emax: read-out: M5 FDSS PA %. The procedure:
as §1
CHO-K1 cells stably expressing the human cloned CHRM3 receptor (M3_CHO cells) were grown and maintained in a monolayer culture with F12/HAM (Life Technologies) supplemented with 10% Fetal Bovine Serum, IX Pen-Strep, and 0.4 mg/mL Geneticin in a humidified atmosphere (5% CO2) at 37° C. The cultures were grown to 80-90% confluency in T150 flasks (Corning) and washed with 1×DPBS and lifted with 0.05% Trypsin (Life Technologies). The cells were then spun (1K rpm, 3 minutes) and frozen using Recovery Cell Culture Freezing Media (Gibco Technologies). Cells were stored in liquid nitrogen and thawed a day before the assay. A similar procedure was used for cells stably expressing the human cloned CHRM5 receptor (M5_CHO).
Prior to the day of the assay, stable M3_CHO or M5_CHO cells were thawed and plated on Greiner 384 well black TC treated plates at 12K cells/well in F12/DMEM supplemented with 10% FBS (Hyclone) and kept overnight in a humidified atmosphere (5% CO2) at 37° C. The next day, cells were loaded with Ca^++ dye (BD Biosciences) using Loading Buffer (HBSS +Ca/+Mg, 20 mM HEPES, 2.5 mM Probenecid) and placed back in cell incubator for a minimum of 1 hour. After incubation, the dye was replaced with Assay Buffer (HBSS −Ca/−Mg, 20 mM HEPES, 2.5 mM Probenecid) and kept at room temperature in the dark before running on cell imager. The FDSS 7000EX (Hamamatsu) was used to acquire Ca^+− traces from cells treated with 11 point dose response of compounds in triplicate in order to generate dose response curves in agonist mode. All compounds were serially diluted in DMSO then prepared in Assay Buffer for Ca^++ flux studies. The dose response curves were generated from the average of triplicate wells obtained from each data point and used a non-linear regression of four parameter dose response algorithm. The Percent Activity (PA) was measured to EC100 of Carbachol.
as §2

For `CC1(C)C[C@@H](Oc2ccc(F)cc2C2CCN([C@@H]3COC4(C3)CN(c3nnco3)C4)CC2)CO1` (single isomer, unassigned) [Example 2O, (S)-7-(4-(2-(((R)-5,5-dimethyltetrahydrofuran-3-yl)oxy)-5-fluorophenyl)piperidin-1-yl)-2-(1,3,4-oxadiazol-2-yl)-5-oxa-2-azaspiro[3.4]octane or (S)-7-(4-(2-(((S)-5,5-dimethyltetrahydrofuran-3-yl)oxy)-5-fluorophenyl)piperidin-1-yl)-2-(1,3,4-oxadiazol-2-yl)-5-oxa-2-azaspiro[3.4]octane], in experiment [1], the “M1 FDSS PA %” value is listed as 72% and the EC50 is 1120 nM. In addition, in experiment [2], the “M5 FDSS PA %” value is on record as 0% and the EC50 is greater than 25000 nM.

Regarding `Fc1cc(F)c(OC2COC2)c(C2CCN([C@@H]3COC4(C3)CN(c3nnco3)C4)CC2)c1` [Example 2EE, (S)-7-(4-(3,5-difluoro-2-(oxetan-3-yloxy)phenyl)piperidin-1-yl)-2-(1,3,4-oxadiazol-2-yl)-5-oxa-2-azaspiro[3.4]octane], the Emax in experiment [1] was 95%; in experiment [2], 0%. In addition, the EC50 is 2340 nM in experiment [1] and greater than 25000 nM in experiment [2].

On to `Fc1ccc(O[C@@H]2CCOC2)c(C2CCN([C@@H]3COC4(C3)CN(c3ncco3)C4)CC2)c1` [Example 4D, (S)-7-(4-(5-fluoro-2-(((R)-tetrahydrofuran-3-yl)oxy)phenyl)piperidin-1-yl)-2-(oxazol-2-yl)-5-oxa-2-azaspiro[3.4]octane], for which, in experiment [1], the Emax came to 95% and the EC50 was 741 nM. Also, in experiment [2], the Emax was determined as 0% and the concentration for a half-maximal effect (EC50) was greater than 25000 nM.

For the compound `Fc1ccc([C@H]2CCOC2)c(C2CCN([C@@H]3COC4(C3)CN(c3nnco3)C4)CC2)c1` (single isomer, unassigned) [Example 3F, (S)-7-(4-(5-fluoro-2-((R)-tetrahydrofuran-3-yl)phenyl)piperidin-1-yl)-2-(1,3,4-oxadiazol-2-yl)-5-oxa-2-azaspiro[3.4]octane or (S)-7-(4-(5-fluoro-2-((S)-tetrahydrofuran-3-yl)phenyl)piperidin-1-yl)-2-(1,3,4-oxadiazol-2-yl)-5-oxa-2-azaspiro[3.4]octane], in experiment [1], the “M1 FDSS PA %” value turned out to be 86% and the EC50 was 595 nM. Further, in experiment [2], the “M5 FDSS PA %” value was 0% and the EC50 is greater than 25000 nM.

As to `Fc1ccc(OC[C@@H]2COCCO2)c(C2CCN([C@@H]3COC4(C3)CN(c3nncs3)C4)CC2)c1` [Example 5L, (S)-7-(4-(2-(((S)-1,4-dioxan-2-yl)methoxy)-5-fluorophenyl)piperidin-1-yl)-2-(1,3,4-thiadiazol-2-yl)-5-oxa-2-azaspiro[3.4]octane], in experiment [1], the Emax came out at 88% and the EC50 was determined as 370 nM. Also, in experiment [2], the Emax is 0% and the concentration giving a half-maximal response (EC50) was greater than 25000 nM.

With `Fc1ccc(OC[C@H]2COCCO2)c(C2CCN([C@@H]3COC4(C3)CN(c3nncs3)C4)CC2)c1` [Example 5K, (S)-7-(4-(2-(((R)-1,4-dioxan-2-yl)methoxy)-5-fluorophenyl)piperidin-1-yl)-2-(1,3,4-thiadiazol-2-yl)-5-oxa-2-azaspiro[3.4]octane], in experiment [1], the Emax came to 96% and the EC50 turned out to be 434 nM. In experiment [2], the Emax came to 0% and the EC50 was 6640 nM.

Consider `c1ccc(C2CCN([C@@H]3COC4(C3)CN(c3ncco3)C4)CC2)c(OC2CCOCC2)c1` [Example 4J, (S)-2-(oxazol-2-yl)-7-(4-(2-((tetrahydro-2H-pyran-4-yl)oxy)phenyl)piperidin-1-yl)-5-oxa-2-azaspiro[3.4]octane], for which, in experiment [1], the Emax was 72% and the EC50 turned out to be 1670 nM. For the same compound, in experiment [2], the Emax amounted to 0% and the EC50 was greater than 25000 nM.

With `Fc1cc(O[C@@H]2CCOC2)c(C2CCN([C@@H]3COC4(C3)CN(c3nncs3)C4)CC2)cc1F` [Example 5M, (S)-7-(4-(4,5-difluoro-2-(((R)-tetrahydrofuran-3-yl)oxy)phenyl)piperidin-1-yl)-2-(1,3,4-thiadiazol-2-yl)-5-oxa-2-azaspiro[3.4]octane], in experiment [1], the Emax worked out at 66% and the EC50 was 786 nM. Also, in experiment [2], the Emax was determined as 0% and the EC50 was greater than 25000 nM.

With `Fc1ccc(OC[C@H]2CCO2)c(C2CCN([C@@H]3COC4(C3)CN(c3nncs3)C4)CC2)c1.O=C(O)C(F)(F)F` (single isomer, unassigned) [Example 2C, (S)-7-(4-(5-fluoro-2-(((R)-oxetan-2-yl)methoxy)phenyl)piperidin-1-yl)-2-(1,3,4-thiadiazol-2-yl)-5-oxa-2-azaspiro[3.4]octane trifluoroacetate or (S)-7-(4-(5-fluoro-2-(((S)-oxetan-2-yl)methoxy)phenyl)piperidin-1-yl)-2-(1,3,4-thiadiazol-2-yl)-5-oxa-2-azaspiro[3.4]octane trifluoroacetate], in experiment [1], the “M1 FDSS PA %” value was determined as 75% and the EC50 was determined as 1150 nM. In experiment [2], the “M5 FDSS PA %” value stood at 0% and the concentration giving a half-maximal response (EC50) is greater than 25000 nM.

Consider `CC(C)(O)COc1ccc(F)cc1C1CCN([C@@H]2COC3(C2)CN(c2ncco2)C3)CC1` [Example 4K, (S)-1-(4-fluoro-2-(1-(2-(oxazol-2-yl)-5-oxa-2-azaspiro[3.4]octan-7-yl)piperidin-4-yl)phenoxy)-2-methylpropan-2-ol], for which, in experiment [1], the Emax was 60% and the EC50 was 444 nM. In addition, in experiment [2], the Emax was 0% and the EC50 is greater than 25000 nM.

The EC50 is the concentration at which the effect is half-maximal.
